# According to publication PMC7935272 (PLoS Pathogens, 2021):
# Values joined by “and” are separate entries in the source; they are usually repeats but may differ in a detail not shown here. Identical values can stand only once. Like-named read-outs stand apart in the source and are kept apart here.
# Legend:
# Vero-hSLAM cells [1] = assay: in vitro; type: cell-based, African green monkey
# Experimental: (§1) To determine cytotoxic concentrations Vero-hSLAM cells were plated in 96 well plates (1.1 × 10^4 per well) and incubated with three-fold serial dilutions of compound. After incubation of uninfected cells for 72 hours, PrestoBlue substrate (Invitrogen) was added to quantify cell metabolic activity as described. Signal was measured using a BioTek H1 synergy multimode microplate reader. Where applicable, cytotoxic concentrations (CC50) were calculated based on four-parameter variable slope regression modeling.
# in vitro = type: cell-based, African green monkey; settings: African green monkey; Vero-hSLAM, 72 hours
# Experimental: as §1
# MeV [2] = assay: Antiviral dose-response assay, MeV-NanoPEST reporter virus in Vero-hSLAM cells
# Experimental: Compound was added in three-fold dilutions to 96-well plates seeded with Vero-hSLAM cells (1.1 × 10^4 per well), followed by infection (MOI = 0.2 TCID50 units per cell) with a recombinant MeV-NanoPEST reporter virus harboring Nano luciferase [36]. After 30-hour incubation, Nano luciferase signals were quantified using a BioTek Synergy H1 multimode plate reader. Raw data were normalized according to norm. value [%] = (RLUsample—RLUmin) / (RLUmax—RLUmin)*100, with RLUmax representing vehicle (DMSO) volume equivalent-treated infected wells and RLUmin representing infected wells exposed to 1 mg/ml cycloheximide. Four-parameter variable slope regression modeling was used to determine EC50 and EC90 concentrations.
# WT MeV L-P complexes = WT MeV L-P complexes (Measles virus, UniProt Q9WMB3); assay: In vitro MeV RdRP assay, de novo initiation, 16-nt template, L WT; type: biochemical; settings: de novo RNA synthesis, S9 Fig
# Sequence of WT MeV L-P complexes (Q9WMB3 whole entry): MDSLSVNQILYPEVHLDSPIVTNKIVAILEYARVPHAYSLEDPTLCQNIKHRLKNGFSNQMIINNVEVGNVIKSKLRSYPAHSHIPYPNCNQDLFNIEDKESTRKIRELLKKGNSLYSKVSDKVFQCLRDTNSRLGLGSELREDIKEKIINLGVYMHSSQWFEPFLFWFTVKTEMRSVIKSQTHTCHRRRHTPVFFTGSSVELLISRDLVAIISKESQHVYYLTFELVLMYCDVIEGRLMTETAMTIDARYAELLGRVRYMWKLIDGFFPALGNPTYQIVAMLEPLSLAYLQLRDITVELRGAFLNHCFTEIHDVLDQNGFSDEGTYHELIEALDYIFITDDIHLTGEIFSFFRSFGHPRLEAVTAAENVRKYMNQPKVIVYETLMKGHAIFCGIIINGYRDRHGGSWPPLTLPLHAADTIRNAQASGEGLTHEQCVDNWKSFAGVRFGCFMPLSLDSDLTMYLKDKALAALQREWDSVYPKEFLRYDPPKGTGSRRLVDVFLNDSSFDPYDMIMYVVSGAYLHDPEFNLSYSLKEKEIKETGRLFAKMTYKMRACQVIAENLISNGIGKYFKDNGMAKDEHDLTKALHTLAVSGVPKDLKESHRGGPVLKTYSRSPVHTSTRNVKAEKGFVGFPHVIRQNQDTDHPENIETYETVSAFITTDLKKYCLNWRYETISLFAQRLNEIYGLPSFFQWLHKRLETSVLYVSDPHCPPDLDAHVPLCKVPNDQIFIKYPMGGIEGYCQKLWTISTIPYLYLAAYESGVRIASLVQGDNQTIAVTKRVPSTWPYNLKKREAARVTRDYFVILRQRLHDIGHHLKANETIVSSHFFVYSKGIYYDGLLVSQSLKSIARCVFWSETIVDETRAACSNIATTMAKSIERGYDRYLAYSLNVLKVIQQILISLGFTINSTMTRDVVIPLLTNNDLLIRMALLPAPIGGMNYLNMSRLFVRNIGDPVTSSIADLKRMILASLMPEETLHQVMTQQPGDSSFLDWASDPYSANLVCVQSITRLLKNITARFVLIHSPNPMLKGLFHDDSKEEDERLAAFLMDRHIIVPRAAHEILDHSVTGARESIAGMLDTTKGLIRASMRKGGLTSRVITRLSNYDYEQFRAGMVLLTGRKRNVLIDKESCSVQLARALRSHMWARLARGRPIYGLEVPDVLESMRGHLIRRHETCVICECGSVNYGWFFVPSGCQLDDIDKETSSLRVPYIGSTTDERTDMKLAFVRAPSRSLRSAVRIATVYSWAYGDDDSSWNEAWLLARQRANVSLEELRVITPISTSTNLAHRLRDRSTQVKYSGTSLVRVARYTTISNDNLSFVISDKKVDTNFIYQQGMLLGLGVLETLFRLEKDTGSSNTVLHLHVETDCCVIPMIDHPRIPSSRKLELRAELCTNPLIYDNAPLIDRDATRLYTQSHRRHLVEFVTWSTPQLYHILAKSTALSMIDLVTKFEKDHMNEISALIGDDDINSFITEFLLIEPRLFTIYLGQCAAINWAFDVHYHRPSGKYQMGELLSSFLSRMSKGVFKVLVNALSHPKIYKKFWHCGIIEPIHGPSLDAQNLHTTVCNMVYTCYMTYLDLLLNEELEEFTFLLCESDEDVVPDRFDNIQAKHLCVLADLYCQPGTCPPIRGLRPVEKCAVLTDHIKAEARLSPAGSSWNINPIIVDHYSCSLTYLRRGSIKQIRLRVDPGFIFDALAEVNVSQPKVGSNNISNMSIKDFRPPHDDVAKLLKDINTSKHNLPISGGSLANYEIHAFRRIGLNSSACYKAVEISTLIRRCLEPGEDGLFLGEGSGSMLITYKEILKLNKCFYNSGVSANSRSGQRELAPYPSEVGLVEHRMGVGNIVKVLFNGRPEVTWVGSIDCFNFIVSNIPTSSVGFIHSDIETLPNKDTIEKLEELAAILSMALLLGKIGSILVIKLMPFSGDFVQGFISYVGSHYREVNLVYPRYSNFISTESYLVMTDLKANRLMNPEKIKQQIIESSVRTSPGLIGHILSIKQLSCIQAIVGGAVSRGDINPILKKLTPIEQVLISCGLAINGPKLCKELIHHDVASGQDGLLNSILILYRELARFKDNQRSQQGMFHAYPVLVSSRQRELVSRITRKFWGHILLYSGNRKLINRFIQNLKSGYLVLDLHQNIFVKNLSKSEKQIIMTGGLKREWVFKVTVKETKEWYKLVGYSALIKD
# Sequence of WT MeV L-P complexes (Q9WMB4 whole entry partner): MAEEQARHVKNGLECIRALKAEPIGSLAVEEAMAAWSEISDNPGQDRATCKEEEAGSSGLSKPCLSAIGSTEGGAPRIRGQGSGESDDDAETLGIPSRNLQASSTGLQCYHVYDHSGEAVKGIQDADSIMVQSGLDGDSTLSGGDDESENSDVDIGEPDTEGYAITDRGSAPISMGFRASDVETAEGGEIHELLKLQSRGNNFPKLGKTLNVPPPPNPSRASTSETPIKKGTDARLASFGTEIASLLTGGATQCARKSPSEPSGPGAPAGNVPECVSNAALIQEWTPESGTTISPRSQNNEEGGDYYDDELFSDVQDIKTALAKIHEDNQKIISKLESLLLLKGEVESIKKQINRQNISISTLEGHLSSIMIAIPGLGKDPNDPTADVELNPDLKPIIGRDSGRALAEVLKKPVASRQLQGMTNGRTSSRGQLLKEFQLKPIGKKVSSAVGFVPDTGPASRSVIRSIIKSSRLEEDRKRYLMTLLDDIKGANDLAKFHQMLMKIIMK
# Vero-hSLAM cells [3] = system: Vero-hSLAM cells
# MeV [4] = assay: Synergy analysis ERDRP-0519 and GHP-88309, antiviral; type: cell-based; settings: ERDRP519 0.00 µM
structure (smiles),measurement,setting,value
"Cn1nc(C(F)(F)F)cc1C(=O)Nc1ccc(S(=O)(=O)N2CCCC[C@@H]2CCOCc2ccc(N=[N+]=[N-])cc2)cc1 [ERDRP-0519az, S(=O)(=O)(N1[C@@H](CCOCc2ccc(N=[N+]=[N-])cc2)CCCC1)c1ccc(NC(=O)c2n(C)nc(C(F)(F)F)c2)cc1]","Cytotoxicity, normalized metabolic activity (Figure 5B)",Vero-hSLAM cells [1]; cpd concentration 0.045725,97.5938 and 98.2663 and 103.31
same,"Cytotoxicity, normalized metabolic activity (Figure 5B)",Vero-hSLAM cells [1]; cpd concentration 0.137174,101.061 and 94.8618 and 104.907
same,"Cytotoxicity, normalized metabolic activity (Figure 5B)",Vero-hSLAM cells [1]; cpd concentration 0.411523,95.7655 and 116.003 and 116.276
same,"Cytotoxicity, normalized metabolic activity (Figure 5B)",Vero-hSLAM cells [1]; cpd concentration 1.23457,92.9074 and 113.376 and 114.469
same,"Cytotoxicity, normalized metabolic activity (Figure 5B)",Vero-hSLAM cells [1]; cpd concentration 3.7037,94.1683 and 104.487 and 118.02
same,"Cytotoxicity, normalized metabolic activity (Figure 5B)",Vero-hSLAM cells [1]; cpd concentration 11.1111,88.7254 and 96.8582 and 105.432
same,"Cytotoxicity, normalized metabolic activity (Figure 5B)",Vero-hSLAM cells [1]; cpd concentration 33.3333,97.5097 and 90.4066 and 94.9249
same,"Cytotoxicity, normalized metabolic activity (Figure 5B)",Vero-hSLAM cells [1]; cpd concentration 100,99.0228 and 98.1192 and 101.776
same,cytotoxicity,Vero-hSLAM cells [1]; highest concentration tested (100 μM),No cytotoxicity was detectable
same,CC50,in vitro,> 100 µM
same,EC50,MeV [2],12.1 µM
same,"MeV inhibition, normalized reporter signal (Figure 5B)",MeV [2]; cpd concentration 0.045725,95.5633 and 136.086 and 77.2785
same,"MeV inhibition, normalized reporter signal (Figure 5B)",MeV [2]; cpd concentration 0.137174,112.785 and 92.1722 and 86.1147
same,"MeV inhibition, normalized reporter signal (Figure 5B)",MeV [2]; cpd concentration 0.411523,116.552 and 130.546 and 132.822
same,"MeV inhibition, normalized reporter signal (Figure 5B)",MeV [2]; cpd concentration 1.23457,119.15 and 109.045 and 127.688
same,"MeV inhibition, normalized reporter signal (Figure 5B)",MeV [2]; cpd concentration 11.1111,44.8748 and 67.0329 and 58.1588
same,"MeV inhibition, normalized reporter signal (Figure 5B)",MeV [2]; cpd concentration 33.3333,8.061 and 7.668 and 10.5185
same,"MeV inhibition, normalized reporter signal (Figure 5B)",MeV [2]; cpd concentration 100,2.512 and 3.634 and 2.904
same,bioactivity in the in vitro RdRP assay,WT MeV L-P complexes,diminished potency
NC(=O)c1c(F)cccc1-c1cccc2cnccc12 [GHP88309],"S4 B cytotoxicity matrix, normalized value",Vero-hSLAM cells [3],100.00
same,"S4 B cytotoxicity matrix, normalized value","Vero-hSLAM cells [3]; ERDRP519 0.00 µM, GHP88309 0.27 µM",99.90
same,"S4 B cytotoxicity matrix, normalized value","Vero-hSLAM cells [3]; ERDRP519 0.00 µM, GHP88309 0.82 µM",99.44 and 91.52
same,"S4 B cytotoxicity matrix, normalized value","Vero-hSLAM cells [3]; ERDRP519 0.00 µM, GHP88309 7.41 µM",97.69
same,"S4 B cytotoxicity matrix, normalized value","Vero-hSLAM cells [3]; ERDRP519 0.00 µM, GHP88309 66.67 µM",98.85 and 98.57
same,"S4 B cytotoxicity matrix, normalized value","Vero-hSLAM cells [3]; ERDRP519 0.00 µM, GHP88309 200.00 µM",92.50 and 87.59 and 94.52
same,"S4 A antiviral matrix, normalized value",MeV [4]; GHP88309 0.03 µM,100.00
same,"S4 A antiviral matrix, normalized value",MeV [4]; GHP88309 0.08 µM,78.32 and 88.03 and 100.19 and 97.70
same,"S4 A antiviral matrix, normalized value",MeV [4]; GHP88309 0.74 µM,50.86 and 41.77 and 80.59 and 41.41
same,"S4 A antiviral matrix, normalized value",MeV [4]; GHP88309 2.22 µM,14.61 and 17.48 and 22.13 and 11.92
